The values below come from patent publication US9624208B2, “Benzoxazolinone compounds with selective activity in voltage-gated sodium channels” (Merck Sharp & Dohme Corp., priority 2012, dated 2017).

One test has as its target T1, human Nav1.7 (Homo sapiens, UniProt Q15858).
T1 construct: expressed in transfected cells
The experiment in a line: PatchXpress sodium current measurement, inactivated state block, Nav1.7. The format is cell-based. The following applies: channels stably expressed in HEK 293 cells, double-pulse protocol, 22° C., read-out: potency for the Nav 1.7 sodium ion channel (1.7=). The method, then:
(§1) Cell Based Assays for Nav 1.7 and Nav 1.5 Activity
(§2) Compounds were tested on human Nav1.7 and Nav1.5 channels stably expressed in HEK 293 cells.
(§3) Sodium Current Measurements on the PatchXpress 7000:
(§4) To measure inactivated state block of sodium channels, test compounds were characterized in an automated PatchXpress® assay (Molecular Devices) using a double-pulse protocol on human Nav1.7 and Nav1.5 channels stably expressed in HEK 293 cells. Cells were held at a potential 20 mV negative to the potential at which ˜50% of the channels are inactivated. A 8000 ms pre-pulse 7 mV positive to the potential at which ˜50% of the channels are inactivated was given followed by a hyperpolarizing 2 ms pulse to −120 mV and a 20 ms test pulse to −20 mV. The protocol was applied to cells in the absence, presence of compound and after washout. The temperature of PatchXpress® instruments was maintained at 22° C. The following recording solutions were used. Internal solution (mM): 30 CsCl, 5 HEPES, 10 EGTA, 120 CsF, 5 NaF, 2 MgCl2, pH 7.3 with CsOH. External solution (mM): 120 NMDG, 40 NaCl, 1 KCl, 0.5 MgCl2, 5 HEPES, 2.7 CaCl2, pH 7.5 with NMDG-OH. Estimated IC50 values were calculated based on at least two compound concentrations tested. For all electrophysiology experiments, offline analysis was used to correct for current rundown and to determine percent inhibition as a function of drug concentration. IC50 values were determined by fitting to the Hill equation.

The target in a further test is T2, human Nav1.5 (Homo sapiens, UniProt Q14524).
T2 construct: expressed in transfected cells
The experiment in a line: PatchXpress sodium current measurement, inactivated state block, Nav1.5. Type of test: cell-based. The following applies: determined by PatchXpress measurement, HEK 293 cells. The method, then: as §1, §2, §3, §4

Values joined by “and” are separate entries in the source; they are usually repeats but may differ in a detail not shown here. Equal values may be shown once. Where only a bound is given, the exact number is not on record here.

T2 sequence (Q14524 whole entry): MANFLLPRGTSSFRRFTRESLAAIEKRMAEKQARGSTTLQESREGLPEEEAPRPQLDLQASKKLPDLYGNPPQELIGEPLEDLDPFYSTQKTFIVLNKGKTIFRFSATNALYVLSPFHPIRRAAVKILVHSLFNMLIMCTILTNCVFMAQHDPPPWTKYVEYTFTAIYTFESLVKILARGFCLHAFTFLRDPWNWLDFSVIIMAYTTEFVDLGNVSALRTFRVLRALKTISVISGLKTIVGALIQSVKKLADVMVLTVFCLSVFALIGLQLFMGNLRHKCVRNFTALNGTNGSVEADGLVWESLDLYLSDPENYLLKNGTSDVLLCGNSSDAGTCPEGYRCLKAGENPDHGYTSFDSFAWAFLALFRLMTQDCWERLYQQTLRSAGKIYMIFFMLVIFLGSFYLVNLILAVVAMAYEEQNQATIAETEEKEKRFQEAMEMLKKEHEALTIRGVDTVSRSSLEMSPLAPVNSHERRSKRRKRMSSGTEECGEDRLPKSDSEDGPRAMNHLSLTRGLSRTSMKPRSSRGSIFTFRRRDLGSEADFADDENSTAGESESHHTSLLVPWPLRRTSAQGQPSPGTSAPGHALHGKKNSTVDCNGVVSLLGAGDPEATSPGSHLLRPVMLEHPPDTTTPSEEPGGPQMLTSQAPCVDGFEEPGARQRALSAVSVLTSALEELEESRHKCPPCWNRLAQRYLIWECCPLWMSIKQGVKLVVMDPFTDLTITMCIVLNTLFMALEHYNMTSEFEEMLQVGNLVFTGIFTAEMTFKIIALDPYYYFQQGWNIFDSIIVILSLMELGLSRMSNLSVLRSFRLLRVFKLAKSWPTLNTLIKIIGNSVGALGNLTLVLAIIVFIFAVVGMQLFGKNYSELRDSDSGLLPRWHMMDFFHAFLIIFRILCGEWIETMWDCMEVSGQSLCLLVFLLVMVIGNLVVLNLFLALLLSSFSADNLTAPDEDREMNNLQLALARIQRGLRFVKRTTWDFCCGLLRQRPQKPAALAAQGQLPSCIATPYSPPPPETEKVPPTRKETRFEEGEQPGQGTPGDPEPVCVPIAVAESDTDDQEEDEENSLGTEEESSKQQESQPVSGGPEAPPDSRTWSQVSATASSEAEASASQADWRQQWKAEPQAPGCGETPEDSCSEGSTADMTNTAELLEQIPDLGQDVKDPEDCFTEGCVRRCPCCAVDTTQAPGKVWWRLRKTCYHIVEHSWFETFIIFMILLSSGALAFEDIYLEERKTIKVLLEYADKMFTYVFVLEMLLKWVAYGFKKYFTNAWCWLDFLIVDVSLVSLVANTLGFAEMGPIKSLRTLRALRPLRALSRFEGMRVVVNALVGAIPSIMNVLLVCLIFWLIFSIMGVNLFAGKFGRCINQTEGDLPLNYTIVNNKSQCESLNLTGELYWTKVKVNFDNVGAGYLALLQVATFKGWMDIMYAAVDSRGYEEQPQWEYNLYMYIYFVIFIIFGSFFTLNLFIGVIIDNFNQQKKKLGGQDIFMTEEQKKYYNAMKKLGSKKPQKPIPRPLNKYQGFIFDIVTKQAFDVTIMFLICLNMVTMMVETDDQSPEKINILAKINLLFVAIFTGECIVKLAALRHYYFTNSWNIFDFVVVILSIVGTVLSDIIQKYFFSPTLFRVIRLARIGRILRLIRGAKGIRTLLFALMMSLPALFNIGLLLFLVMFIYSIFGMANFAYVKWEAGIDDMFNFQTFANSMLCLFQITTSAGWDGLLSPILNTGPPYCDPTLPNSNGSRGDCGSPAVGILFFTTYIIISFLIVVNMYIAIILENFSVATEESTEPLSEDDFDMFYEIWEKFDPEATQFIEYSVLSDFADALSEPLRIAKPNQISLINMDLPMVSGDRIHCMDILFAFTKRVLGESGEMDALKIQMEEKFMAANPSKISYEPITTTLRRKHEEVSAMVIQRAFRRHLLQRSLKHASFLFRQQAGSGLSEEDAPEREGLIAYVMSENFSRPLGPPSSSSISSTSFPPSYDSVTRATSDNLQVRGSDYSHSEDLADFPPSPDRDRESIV
T1 sequence (Q15858 whole entry): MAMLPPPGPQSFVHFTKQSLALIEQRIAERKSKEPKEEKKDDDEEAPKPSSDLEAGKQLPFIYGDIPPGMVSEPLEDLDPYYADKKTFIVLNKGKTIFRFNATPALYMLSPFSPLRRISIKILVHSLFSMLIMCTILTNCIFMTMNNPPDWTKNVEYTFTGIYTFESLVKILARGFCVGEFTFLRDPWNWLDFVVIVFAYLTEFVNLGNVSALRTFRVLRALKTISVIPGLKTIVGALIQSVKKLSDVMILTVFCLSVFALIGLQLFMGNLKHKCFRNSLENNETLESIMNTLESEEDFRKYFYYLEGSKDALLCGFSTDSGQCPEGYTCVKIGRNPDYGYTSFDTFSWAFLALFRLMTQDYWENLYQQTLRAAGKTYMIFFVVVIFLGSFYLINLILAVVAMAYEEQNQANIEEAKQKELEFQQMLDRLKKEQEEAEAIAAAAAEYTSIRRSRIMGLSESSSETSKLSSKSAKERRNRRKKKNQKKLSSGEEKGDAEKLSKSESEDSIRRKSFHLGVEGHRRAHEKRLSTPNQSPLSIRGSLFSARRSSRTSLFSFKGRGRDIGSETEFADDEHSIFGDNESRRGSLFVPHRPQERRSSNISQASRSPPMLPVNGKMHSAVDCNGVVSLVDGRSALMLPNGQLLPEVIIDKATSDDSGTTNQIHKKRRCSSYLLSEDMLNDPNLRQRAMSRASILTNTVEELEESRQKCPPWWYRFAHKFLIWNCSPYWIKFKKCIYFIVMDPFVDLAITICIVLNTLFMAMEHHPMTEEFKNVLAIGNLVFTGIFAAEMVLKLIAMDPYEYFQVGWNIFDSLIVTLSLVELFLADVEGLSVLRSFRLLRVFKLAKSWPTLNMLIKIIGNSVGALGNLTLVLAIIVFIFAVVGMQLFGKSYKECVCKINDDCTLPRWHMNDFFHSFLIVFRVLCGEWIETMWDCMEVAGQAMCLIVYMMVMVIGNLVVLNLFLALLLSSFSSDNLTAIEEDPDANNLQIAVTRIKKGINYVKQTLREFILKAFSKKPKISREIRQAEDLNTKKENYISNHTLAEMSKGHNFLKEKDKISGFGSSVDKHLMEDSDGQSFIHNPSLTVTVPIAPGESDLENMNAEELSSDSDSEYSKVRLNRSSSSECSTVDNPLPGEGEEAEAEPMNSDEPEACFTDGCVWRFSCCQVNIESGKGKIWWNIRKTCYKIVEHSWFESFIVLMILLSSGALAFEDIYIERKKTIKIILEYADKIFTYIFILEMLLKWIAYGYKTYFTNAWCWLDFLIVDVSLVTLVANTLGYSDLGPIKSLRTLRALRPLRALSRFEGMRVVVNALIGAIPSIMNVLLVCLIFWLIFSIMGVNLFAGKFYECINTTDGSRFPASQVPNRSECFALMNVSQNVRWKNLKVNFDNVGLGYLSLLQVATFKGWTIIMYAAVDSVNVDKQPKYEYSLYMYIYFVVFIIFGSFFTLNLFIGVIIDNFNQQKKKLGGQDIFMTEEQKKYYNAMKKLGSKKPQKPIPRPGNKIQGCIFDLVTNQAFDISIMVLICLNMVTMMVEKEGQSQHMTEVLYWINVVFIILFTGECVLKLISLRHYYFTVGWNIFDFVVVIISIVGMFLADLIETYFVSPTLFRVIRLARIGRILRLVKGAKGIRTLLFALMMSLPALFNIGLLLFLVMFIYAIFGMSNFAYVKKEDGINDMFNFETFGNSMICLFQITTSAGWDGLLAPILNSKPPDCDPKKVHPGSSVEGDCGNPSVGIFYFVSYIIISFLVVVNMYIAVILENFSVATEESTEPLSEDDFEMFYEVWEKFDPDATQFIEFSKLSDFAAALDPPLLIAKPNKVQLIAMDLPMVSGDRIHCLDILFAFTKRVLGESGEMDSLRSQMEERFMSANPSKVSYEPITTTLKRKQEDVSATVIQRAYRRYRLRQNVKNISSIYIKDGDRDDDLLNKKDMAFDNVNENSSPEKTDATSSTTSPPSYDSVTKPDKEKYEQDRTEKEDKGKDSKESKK

With `Cc1cc2c(cc1S(=O)(=O)Nc1cccc(F)n1)oc(=O)n2[C@H](C)c1cccc(C#CCN)c1C` [Ex21-24, 3-{(1R)-1-[3-(3-aminoprop-1-yn-1-yl)-2-methylphenyl]ethyl}-N-(6-fluoropyridin-2-yl)-5-methyl-2-oxo-2,3-dihydro-1,3-benzoxazole-6-sulfonamide], the IC50 on human Nav1.7 is 102 nM. The “ratio of Nav 1.5:Nav 1.7 potency” value on human Nav1.5 is reported as 240. In the case of `O=c1oc2cc(S(=O)(=O)Nc3cccc(F)n3)c(F)cc2n1Cc1cccc2c1CNCC2F` (single isomer, unassigned; enantiomer 1) [Ex5-10, (R or S)-5-fluoro-N-(6-fluoropyridin-2-yl)-3-[(4-fluoro-1,2,3,4-tetrahydroisoquinolin-8-yl)methyl]-2-oxo-2,3-dihydro-1,3-benzoxazole-6-sulfonamide (enantiomer 1)], at human Nav1.7, the IC50 was 961 nM. In addition, the “ratio of Nav 1.5:Nav 1.7 potency” value at human Nav1.5 is given as more than 31. Consider `Cc1cccc([C@@H](C)n2c(=O)oc3cc(S(=O)(=O)Nc4cccc(F)n4)c(F)cc32)c1C1CCCN1` (stereo partly drawn) [Ex20-2, 5-fluoro-N-(6-fluoropyridin-2-yl)-3-{(1R)-1-[3-methyl-2-(pyrrolidin-2-yl)phenyl]ethyl}-2-oxo-2,3-dihydro-1,3-benzoxazole-6-sulfonamide], for which the IC50 at human Nav1.7 was 35 nM. For the same molecule, at human Nav1.5, the “ratio of Nav 1.5:Nav 1.7 potency” value was 272. `C[C@H](c1ccccc1C1CNC1)n1c(=O)oc2cc(S(=O)(=O)Nc3cccc(F)n3)c(F)cc21` [Ex10-3, (R)-3-(1-(2-(Azetidin-3-yl)phenyl)ethyl)-5-fluoro-N-(6-fluoropyridin-2-yl)-2-oxo-2,3-dihydrobenzo[d]oxazole-6-sulfonamide]: the IC50 on human Nav1.7 was 39 nM. Further, the “ratio of Nav 1.5:Nav 1.7 potency” value on human Nav1.5 was determined as 1306. `C[C@H](c1cccc(C#CC2(N)CC2)c1)n1c(=O)oc2cc(S(=O)(=O)Nc3cccc(F)n3)c(F)cc21` [Ex21-12, 3-[(1R)-1-{3-[(1-aminocyclopropyl)ethynyl]phenyl}ethyl]-5-fluoro-N-(6-fluoropyridin-2-yl)-2-oxo-2,3-dihydro-1,3-benzoxazole-6-sulfonamide]: the IC50 at human Nav1.7 is 258 nM. Also, the “ratio of Nav 1.5:Nav 1.7 potency” value on human Nav1.5 is reported as 116. On the same counts, the results for `C[C@H](c1cccc(CCCN)c1)n1c(=O)oc2cc(S(=O)(=O)Nc3cccc(F)n3)c(F)cc21` [Ex22-1, 3-{(1R)-1-[3-(3-aminopropyl)phenyl]ethyl}-5-fluoro-N-(6-fluoropyridin-2-yl)-2-oxo-2,3-dihydro-1,3-benzoxazole-6-sulfonamide] are 55 nM and 380. `C[C@H](c1cccc(C#CC2CCCC2N)c1)n1c(=O)oc2cc(S(=O)(=O)Nc3cccc(F)n3)c(F)cc21` (stereo partly drawn) [Ex21-18, 3-[(1R)-1-{3-[(2-aminocyclopentyl)ethynyl]phenyl}ethyl]-5-fluoro-N-(6-fluoropyridin-2-yl)-2-oxo-2,3-dihydro-1,3-benzoxazole-6-sulfonamide]: the IC50 at human Nav1.7 amounted to 118 nM. The “ratio of Nav 1.5:Nav 1.7 potency” value on human Nav1.5 is reported as 64. `C[C@H](c1ccccc1C1=CCNCC1)n1c(=O)oc2cc(S(=O)(=O)Nc3cccc(F)n3)c(F)cc21` [Ex7-5, (R)-5-Fluoro-N-(6-fluoropyridin-2-yl)-2-oxo-3-(1-(2-(1,2,3,6-tetrahydropyridin-4-yl)phenyl)ethyl)-2,3-dihydrobenzo[d]oxazole-6-sulfonamide]: on human Nav1.7, the IC50 was 3 nM. Also, the “ratio of Nav 1.5:Nav 1.7 potency” value at human Nav1.5 is 1398. Regarding `Cc1cc2c(cc1S(=O)(=O)Nc1cccc(F)n1)oc(=O)n2[C@H](C)c1ccccc1C1=CCNCC1` [Ex17-8, N-(6-fluoropyridin-2-yl)-5-methyl-2-oxo-3-{(1R)-1-[2-(1,2,3,6-tetrahydropyridin-4-yl)phenyl]ethyl}-2,3-dihydro-1,3-benzoxazole-6-sulfonamide], the IC50 on human Nav1.7 was determined as 6 nM. In addition, at human Nav1.5, the “ratio of Nav 1.5:Nav 1.7 potency” value amounted to 1452. In the case of `C[C@H](c1cccc(C#CCN2CCCC2)c1)n1c(=O)oc2cc(S(=O)(=O)Nc3cccc(F)n3)c(F)cc21` [Ex21-7, 5-fluoro-N-(6-fluoropyridin-2-yl)-2-oxo-3-[(1R)-1-{3-[3-(pyrrolidin-1-yl)prop-1-yn-1-yl]phenyl}ethyl]-2,3-dihydro-1,3-benzoxazole-6-sulfonamide], the IC50 at human Nav1.7 stood at 337 nM. In addition, the “ratio of Nav 1.5:Nav 1.7 potency” value at human Nav1.5 was 89.

`Cc1cc2c(cc1S(=O)(=O)Nc1cccc(F)n1)oc(=O)n2[C@H](C)c1cccc(C#CCN)c1` [Ex21-23, 3-{(1R)-1-[3-(3-aminoprop-1-yn-1-yl)phenyl]ethyl}-N-(6-fluoropyridin-2-yl)-5-methyl-2-oxo-2,3-dihydro-1,3-benzoxazole-6-sulfonamide]: the IC50 on human Nav1.7 came to 90 nM. Further, the “ratio of Nav 1.5:Nav 1.7 potency” value on human Nav1.5 is on record as 251.

As to `C[C@H](c1ccccc1C#CCN1CCC(O)C1)n1c(=O)oc2cc(S(=O)(=O)Nc3cccc(F)n3)c(F)cc21` (stereo partly drawn) [Ex8-8, 5-fluoro-N-(6-fluoropyridin-2-yl)-3-[(1R)-1-{2-[3-(3-hydroxypyrrolidin-1-yl)prop-1-yn-1-yl]phenyl}ethyl]-2-oxo-2,3-dihydro-1,3-benzoxazole-6-sulfonamide], the IC50 at human Nav1.7 was found to be 299 nM. Moreover, the “ratio of Nav 1.5:Nav 1.7 potency” value at human Nav1.5 was 75. Regarding `C[C@H](c1ccccc1N1CCNCC1)n1c(=O)oc2cc(S(=O)(=O)Nc3cccc(F)n3)c(F)cc21` [Ex23-1, 5-fluoro-N-(6-fluoropyridin-2-yl)-2-oxo-3-{(1R)-1-[2-(piperazin-1-yl)phenyl]ethyl}-2,3-dihydro-1,3-benzoxazole-6-sulfonamide], the IC50 on human Nav1.7 came to 150 nM. Also, the “ratio of Nav 1.5:Nav 1.7 potency” value at human Nav1.5 is on record as 200. Take `Cl.O=c1oc2cc(S(=O)(=O)Nc3cccc(F)n3)c(F)cc2n1Cc1cccc2c1CNCC2F` (racemic) [Ex5-9, (+/−)-5-Fluoro-3-((4-fluoro-1,2,3,4-tetrahydroisoquinolin-8-yl)methyl)-N-(6-fluoropyridin-2-yl)-2-oxo-2,3-dihydrobenzo[d]oxazole-6-sulfonamide hydrochloride]: the IC50 at human Nav1.7 came out at 1140 nM. In addition, the “ratio of Nav 1.5:Nav 1.7 potency” value at human Nav1.5 was found to be 26. As for `C[C@H](c1ccccc1CCN)n1c(=O)oc2cc(S(=O)(=O)Nc3cccc(F)n3)c(F)cc21` [Ex24-2, 3-{(1R)-1-[2-(2-aminoethyl)phenyl]ethyl}-5-fluoro-N-(6-fluoropyridin-2-yl)-2-oxo-2,3-dihydro-1,3-benzoxazole-6-sulfonamide], the IC50 on human Nav1.7 was 27 nM and 18 nM.

Regarding `Cc1cc2c(cc1S(=O)(=O)Nc1cccc(F)n1)oc(=O)n2[C@H](C)c1cccc(C)c1Br` [Ex18-8, 3-[(1R)-1-(2-bromo-3-methylphenyl)ethyl]-N-(6-fluoropyridin-2-yl)-5-methyl-2-oxo-2,3-dihydro-1,3-benzoxazole-6-sulfonamide], the IC50 at human Nav1.7 amounted to 107 nM. Also, the “ratio of Nav 1.5:Nav 1.7 potency” value at human Nav1.5 stood at 102. On the same counts, the results for `CNCC#Cc1cccc([C@@H](C)n2c(=O)oc3cc(S(=O)(=O)Nc4cccc(F)n4)c(F)cc32)c1` [Ex21-2, 5-fluoro-N-(6-fluoropyridin-2-yl)-3-[(1R)-1-{3-[3-(methylamino)prop-1-yn-1-yl]phenyl}ethyl]-2-oxo-2,3-dihydro-1,3-benzoxazole-6-sulfonamide] are 245 nM and 122. Take `C[C@H](c1cccc2c1CNCC2)n1c(=O)oc2cc(S(=O)(=O)Nc3cc(Cl)ccn3)c(F)cc21` [Ex16-8, N-(4-Chloropyridin-2-yl)-5-fluoro-2-oxo-3-[(1R)-1-(1,2,3,4-tetrahydroisoquinolin-8-yl)ethyl]-2,3-dihydro-1,3-benzoxazole-6-sulfonamide]: at human Nav1.7, the IC50 was determined as 134 nM. The “ratio of Nav 1.5:Nav 1.7 potency” value at human Nav1.5 is reported as 88.

`C[C@H](c1ccccc1C1=CCNCCC1)n1c(=O)oc2cc(S(=O)(=O)Nc3cccc(F)n3)c(F)cc21` [Ex7-7, 5-fluoro-N-(6-fluoropyridin-2-yl)-2-oxo-3-{(1R)-1-[2-(2,5,6,7-tetrahydro-1H-azepin-4-yl)phenyl]ethyl}-2,3-dihydro-1,3-benzoxazole-6-sulfonamide]: at human Nav1.7, the IC50 was found to be 41 nM. At human Nav1.5, the “ratio of Nav 1.5:Nav 1.7 potency” value stood at 239.

With `C[C@H](c1cccc(C2=CCCNC2)c1)n1c(=O)oc2cc(S(=O)(=O)Nc3cccc(F)n3)c(F)cc21` [Ex7-11, 5-fluoro-N-(6-fluoropyridin-2-yl)-2-oxo-3-{(1R)-1-[3-(1,2,5,6-tetrahydropyridin-3-yl)phenyl]ethyl}-2,3-dihydro-1,3-benzoxazole-6-sulfonamide], the IC50 at human Nav1.7 turned out to be 65 nM. In addition, the “ratio of Nav 1.5:Nav 1.7 potency” value at human Nav1.5 came to 461.

As to `Cc1cc2c(cc1S(=O)(=O)Nc1cccc(F)n1)oc(=O)n2[C@H](C)c1cccc(C)c1C#C[C@@H]1CCCC[C@@H]1N` [Ex21-25, 3-[(1R)-1-(2-{[(1S,2S)-2-aminocyclohexyl]-ethynyl}-3-methylphenyl)ethyl]-N-(6-fluoropyridin-2-yl)-5-methyl-2-oxo-2,3-dihydro-1,3-benzoxazole-6-sulfonamide], on human Nav1.7, the IC50 was determined as 9 nM. On human Nav1.5, the “ratio of Nav 1.5:Nav 1.7 potency” value came out at 167.
